Key:
[1] = system: soft rot in wild cabbages; experiment: Field test for controlling soft rot in wild cabbages; assay type: in vivo, wild cabbage; settings: 7 days after the last application
Protocol: (§1) In October 2019, tests were carried out in fields of Chinese cabbage, wild cabbage and lettuce in Tai'an, Shandong. The doses of the compounds 152 and 282 of the present disclosure (both prepared as dispersible granules with a mass fraction of 10%) used were 16.87 ga.i./hm^2 and 33.75 ga.i./hm^2, and the control agents used were 3% (by weight) wettable powder of zhongshengmycin and 33.5% (by weight) aqueous suspension of oxine-copper (both were commercially available). The dose of zhongshengmycin was 67.5 ga.i./hm^2, and the dose of oxine-copper was 337.5 ga.i./hm^2. Test and control agents were arranged in randomized blocks. Plot area was 15 m^2. Treatment was repeated 3 times. The route of application was spraying on stem and leaves. The application was performed 2 times in total at an interval of 7 days, and the efficacy investigation was performed 7 days after the last application. During the investigation, sampling was carried out at 5 points in each plot. Disease conditions of soft rot in Chinese cabbages, soft rot in lettuces and soft rot in wild cabbages were recorded according to the relevant technical standard of Pesticide Guidelines for the Field Efficacy Trials GB/T17980.114-2004, and the incidence rate of plants was calculated to further evaluate the control effect.

[2] = system: pathogenic bacteria causing bacterial angular leaf spot in cucumbers; experiment: In vitro bactericidal activity, bacterial angular leaf spot in cucumbers; assay type: cell-based, pseudomonas; settings: read-out: inhibitory rate; for inhibition at 1 ppm: dosage 1 ppm; for inhibition at 5 ppm: dosage 5 ppm
bacterial blight in rice = experiment: whole plant or invertebrate; settings: Oryza sativa, read-out: efficacy against bacterial blight in rice
[3] = system: pathogenic bacteria causing black rot in Chinese cabbages; experiment: In vitro bactericidal activity, black rot in Chinese cabbages; assay type: cell-based, xanthomonas; settings: Xanthomonas, read-out: inhibitory rate; for inhibition at 1 ppm: dosage 1 ppm; for inhibition at 5 ppm: dosage 5 ppm
[4] = system: pathogenic bacteria causing black shank in potatoes; experiment: In vitro bactericidal activity, black shank in potatoes; assay type: cell-based; settings: read-out: inhibitory rate; for inhibition at 1 ppm: dosage 1 ppm; for inhibition at 5 ppm: dosage 5 ppm
[5] = system: pathogenic bacteria causing stem rot in sweet potatoes; experiment: In vitro bactericidal activity, stem rot in sweet potatoes; assay type: cell-based, dikia; settings: read-out: inhibitory rate; for inhibition at 1 ppm: dosage 1 ppm; for inhibition at 5 ppm: dosage 5 ppm
[6] = system: stem rot in sweet potatoes; experiment: whole plant or invertebrate; settings: read-out: efficacy against stem rot in sweet potatoes
cucumber seedlings = experiment: Safety for plant growth after application; assay type: in vivo; settings: dosage 200 ppm
Method in brief: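 Indoor potted cucumber seedlings were treated with the compounds, and crop safety was judged from effects on plant height growth rate, chlorophyll content and leaf area.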

[7] = system: pathogenic bacteria causing fire blight in pears; experiment: In vitro bactericidal activity, fire blight in pears; assay type: cell-based, erwinia; settings: Erwinia, read-out: inhibitory rate; for inhibition at 1 ppm: dosage 1 ppm; for inhibition at 5 ppm: dosage 5 ppm
[8] = system: pathogenic bacteria causing bacterial wilt in cassava; experiment: organism not typed; assay type: cell-based; settings: read-out: inhibitory rate
black shank in potatoes = experiment: Living crops in vivo protective activity, potatoes (root irrigation); settings: Solanum tuberosum, read-out: efficacy against black shank in potatoes; for pest or weed control at 5 ppm: dosage 5 ppm; for pest or weed control at 10 ppm: dosage 10 ppm
Protocol: Root irrigation was carried out on the potatoes for tests according to the designed concentration of the agents. The dosage for each plant was 200 mL and was kept consistent (also for the control). The black shank bacteria were inoculated on the second day after the application. The results were investigated according to the disease condition.

[9] = system: soft rot in Chinese cabbages; experiment: Field test for controlling soft rot in Chinese cabbages; assay type: in vivo, Chinese cabbage; settings: 7 days after the last application
Protocol: as §1

[10] = system: fruit blotch in watermelons; experiment: whole plant or invertebrate; settings: read-out: efficacy against fruit blotch in watermelons
[11] = system: bacterial wilt in tobacco; experiment: whole plant or invertebrate; settings: Nicotiana tabacum, read-out: efficacy against bacterial wilt in tobacco
[12] = system: indoor potted cucumber seedlings; experiment: Effect of improving growth and development of crops; assay type: in vivo; design: Rate of growth rate increase (%): concentration or dose not given beside the values; settings: versus blank control; for Rate of chlorophyll content increase (%) / Rate of leaf area increase (%): 14 days after application; for Rate of growth rate increase (%): plant height 14 days after application; for Rate of leaf area increase (%): second leaf
Method in brief: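 Pot-grown seedlings kept indoors; height plus second-leaf length (base to tip) and width (upper shoulder) taken pre-treatment and at day 14. Derived: growth-rate increase %, leaf area gain, SPAD chlorophyll gain.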

[13] = system: pathogenic bacteria causing bacterial wilt in tobacco; experiment: whole plant or invertebrate; assay type: cell-based, ralstonia; settings: read-out: inhibitory rate
[14] = system: soft rot in Chinese cabbages; experiment: whole plant or invertebrate; settings: 48 h, read-out: efficacy against soft rot in Chinese cabbages
[15] = system: pathogenic bacteria causing fruit blotch in watermelons; experiment: In vitro bactericidal activity, fruit blotch in watermelons; assay type: cell-based, acidovorax; settings: read-out: inhibitory rate; for inhibition at 1 ppm: dosage 1 ppm; for inhibition at 5 ppm: dosage 5 ppm
[16] = system: pathogenic bacteria causing bacterial blight in rice; experiment: whole plant or invertebrate; assay type: cell-based, xanthomonas; settings: read-out: inhibitory rate
soft rot in lettuces = experiment: Field test for controlling soft rot in lettuces; assay type: in vivo, lettuce; settings: 7 days after the last application
Protocol: as §1

[17] = dose 16.87 g a.i./hm^2, 2 sprays
[18] = dose 33.75 g a.i./hm^2, 2 sprays

Compound | inhibition at 1 ppm [2] | inhibition at 5 ppm [2] | pest or weed control at 5 ppm (bacterial blight in rice) | pest or weed control at 10 ppm (bacterial blight in rice) | inhibition at 1 ppm [3] | inhibition at 5 ppm [3] | inhibition at 1 ppm [4] | inhibition at 5 ppm [4] | inhibition at 1 ppm [5] | inhibition at 5 ppm [5] | pest or weed control at 5 ppm [6] | pest or weed control at 10 ppm [6] | safety for plant growth (discoloration, necrosis, wilt, malformation) (cucumber seedlings) | inhibition at 1 ppm [7] | inhibition at 5 ppm [7] | inhibition at 1 ppm [8] | inhibition at 5 ppm [8] | pest or weed control at 5 ppm (black shank in potatoes) | pest or weed control at 10 ppm (black shank in potatoes) | pest or weed control at 5 ppm [10] | also measured
COCCOC(=O)c1cn(C2CC2)c2cc(Cl)c(F)cc2c1=O [Compound 152, 2-methoxyethyl 7-chloro-1-cyclopropyl-6-fluoro-4-oxo-1,4-dihydroquinoline-3-carboxylate] | ≥ 90% | ≥ 90% | ≥ 90% | ≥ 90% | ≥ 90% | ≥ 90% | ≥ 90% | ≥ 90% | ≥ 90% | ≥ 90% | ≥ 90% | ≥ 90% | safe for plant growth | ≥ 90% | ≥ 90% | ≥ 90% | ≥ 90% | ≥ 90% | ≥ 90% | ≥ 90% | Control effect (%) [1, 17]: 82%; Control effect (%) [1, 18]: 93%; Control effect (%) [9, 17]: 86%; Control effect (%) [9, 18]: 96%; pest or weed control at 10 ppm [10]: ≥ 90%; pest or weed control at 5 ppm [11]: ≥ 90%; pest or weed control at 10 ppm [11]: ≥ 90%; Rate of chlorophyll content increase (%) [12]: 17%; Rate of growth rate increase (%) [12]: 15%; Rate of leaf area increase (%) [12]: 16%; inhibition at 1 ppm [13]: ≥ 90%; inhibition at 5 ppm [13]: ≥ 90%; pest or weed control at 5 ppm [14]: ≥ 90%; pest or weed control at 10 ppm [14]: ≥ 90%; inhibition at 1 ppm [15]: ≥ 90%; inhibition at 5 ppm [15]: ≥ 90%; inhibition at 1 ppm [16]: ≥ 90%; inhibition at 5 ppm [16]: ≥ 90%; Control effect (%) (soft rot in lettuces; [17]): 79%; Control effect (%) (soft rot in lettuces; [18]): 90%
CCOc1cc2c(cc1F)c(=O)c(C(=O)OCCOC)cn2C1CC1 [Compound 282, 2-methoxyethyl 1-cyclopropyl-6-fluoro-4-oxo-7-ethoxy-1,4-dihydroquinoline-3-carboxylate] | ≥ 90% | ≥ 90% | ≥ 90% | ≥ 90% | ≥ 90% | ≥ 90% | ≥ 90% | ≥ 90% | ≥ 90% | ≥ 90% | ≥ 90% | ≥ 90% | safe for plant growth | ≥ 90% | ≥ 90% | ≥ 90% | ≥ 90% | ≥ 90% | ≥ 90% | ≥ 90% | Control effect (%) [1, 17]: 80%; Control effect (%) [1, 18]: 87%; Control effect (%) [9, 17]: 82%; Control effect (%) [9, 18]: 90%; pest or weed control at 10 ppm [10]: ≥ 90%; pest or weed control at 5 ppm [11]: ≥ 90%; pest or weed control at 10 ppm [11]: ≥ 90%; Rate of chlorophyll content increase (%) [12]: 16%; Rate of growth rate increase (%) [12]: 12%; Rate of leaf area increase (%) [12]: 16%; inhibition at 1 ppm [13]: ≥ 90%; inhibition at 5 ppm [13]: ≥ 90%; pest or weed control at 5 ppm [14]: ≥ 90%; pest or weed control at 10 ppm [14]: ≥ 90%; inhibition at 1 ppm [15]: ≥ 90%; inhibition at 5 ppm [15]: ≥ 90%; inhibition at 1 ppm [16]: ≥ 90%; inhibition at 5 ppm [16]: ≥ 90%; Control effect (%) (soft rot in lettuces; [17]): 73%; Control effect (%) (soft rot in lettuces; [18]): 85%
CCOCCOC(=O)c1cn(C2CC2)c2cc(Cl)c(F)cc2c1=O [Compound 153] | ≥ 90% | ≥ 90% | ≥ 90% | ≥ 90% | ≥ 90% | ≥ 90% | ≥ 90% | ≥ 90% | ≥ 90% | ≥ 90% | ≥ 90% | ≥ 90% | safe for plant growth | ≥ 90% | ≥ 90% | ≥ 90% | ≥ 90% | ≥ 90% | ≥ 90% | ≥ 90% | pest or weed control at 10 ppm [10]: ≥ 90%; pest or weed control at 5 ppm [11]: ≥ 90%; pest or weed control at 10 ppm [11]: ≥ 90%; Rate of chlorophyll content increase (%) [12]: 14%; Rate of growth rate increase (%) [12]: 15%; Rate of leaf area increase (%) [12]: 13%; inhibition at 1 ppm [13]: ≥ 90%; inhibition at 5 ppm [13]: ≥ 90%; pest or weed control at 5 ppm [14]: ≥ 90%; pest or weed control at 10 ppm [14]: ≥ 90%; inhibition at 1 ppm [15]: ≥ 90%; inhibition at 5 ppm [15]: ≥ 90%; inhibition at 1 ppm [16]: ≥ 90%; inhibition at 5 ppm [16]: ≥ 90%

Reference: US20250313533A1, “QUINOLINE CARBOXYLIC ACID ESTER COMPOUND AND PREPARATION METHOD AND USE THEREOF” (priority 2019, published 2025)
